Reference: patent publication US10407428B2, “Spiro-isoquinoline-1,4′-piperidine compounds having multimodal activity against pain” (ESTEVE PHARMACEUTICALS, S.A., priority 2014, dated 2019)

molecular target: human σ1 receptor and human μ-opioid receptor; experiment: Human σ1 receptor radioligand assay and human μ-opioid receptor radioligand assay (μ and σ1 dual binding); parameters: key to μ and σ1 dual binding: +: Both Ki-μ and Ki-σ1>=500 nM; ++: One Ki<500 nM while the other Ki is >=500 nM; +++: Both Ki-μ and Ki-σ1<500 nM; ++++: Both Ki-μ and Ki-σ1<100 nM; settings: not given

Row | SMILES | Ki [nM] | μ and σ1 dual binding
1 | FC(F)(F)CN1CCc2ccccc2C12CCN(CCc1ccncc1)CC2 [Example 136, 1′-(2-(pyridin-4-yl)ethyl)-2-(2,2,2-trifluoroethyl)-3,4-dihydro-2H-spiro[isoquinoline-1,4′-piperidine]] | < 500 | –
2 | FC(F)(F)CN1CCc2ccccc2C12CCN(CCc1cccnc1)CC2 [Example 137, 1′-(2-(pyridin-3-yl)ethyl)-2-(2,2,2-trifluoroethyl)-3,4-dihydro-2H-spiro[isoquinoline-1,4′-piperidine]] | < 500 | –
3 | CN1Cc2ccccc2C12CCN(CCc1ccccc1)CC2 [Example 140, 2-Methyl-1′-phenethylspiro[isoindoline-1,4′-piperidine]] | < 500 | –
4 | CN1Cc2ccccc2C12CCN(CC1CCOCC1)CC2 [Example 141, 2-Methyl-1′-((tetrahydro-2H-pyran-4-yl)methyl)spiro[isoindoline-1,4′-piperidine]] | – | ++
5 | CN1CCc2ccccc2C12CCN(C[C@H](O)c1ccncc1F)CC2 [Example 142, (R)-1-(3-fluoropyridin-4-yl)-2-(2-methyl-3,4-dihydro-2H-spiro[isoquinoline-1,4′-piperidine]-1′-yl)ethanol] | < 500 | –
6 | CN1CCc2ccccc2C12CCN(C[C@@H](O)c1ccncc1F)CC2 [Example 143, (S)-1-(3-fluoropyridin-4-yl)-2-(2-methyl-3,4-dihydro-2H-spiro[isoquinoline-1,4′-piperidine]-1′-yl)ethanol] | < 500 | –
7 | CCN(C(=O)CN1CCC2(CC1)c1ccccc1CCN2CC)C(C)C [Example 144, N-ethyl-2-(2-ethyl-3,4-dihydro-2H-spiro[isoquinoline-1,4′-piperidine]-1′-yl)-N-isopropylacetamide] | < 500 | –
8 | CCN1CCc2ccccc2C12CCN(CC(=O)N1CCC(F)(F)CC1)CC2 [Example 145, 1-(4,4-difluoropiperidin-1-yl)-2-(2-ethyl-3,4-dihydro-2H-spiro[isoquinoline-1,4′-piperidine]-1′-yl)ethanone] | < 500 | –
9 | CCN1CCc2ccccc2C12CCN(CC(O)c1ccncc1)CC2 (stereo not shown) [Example 146, 2-(2-ethyl-3,4-dihydro-2H-spiro[isoquinoline-1,4′-piperidine]-1′-yl)-1-(pyridin-4-yl)ethanol] | – | ++
10 | CCN1CCc2ccccc2C12CCN(CC(=O)N1CCOCC1)CC2 [Example 147, 2-(2-ethyl-3,4-dihydro-2H-spiro[isoquinoline-1,4′-piperidine]-1′-yl)-1-morpholinoethanone] | < 500 | –
11 | CCN1CCc2ccccc2C12CCN(CCN1CCOCC1)CC2 [Example 148, 4-(2-(2-ethyl-3,4-dihydro-2H-spiro[isoquinoline-1,4′-piperidine]-1′-yl)ethyl)morpholine] | – | ++
12 | CCN1CCc2ccccc2C12CCN(CC(=O)N1CCS(=O)(=O)CC1)CC2 [Example 149, 2-(2-ethyl-3,4-dihydro-2H-spiro[isoquinoline-1,4′-piperidine]-1′-yl)-1-(1,1-dioxo-thiomorpholin-4-yl)ethanone] | – | ++
13 | CCN1CCc2ccccc2C12CCN(CC(=O)N1CCC(F)CC1)CC2 [Example 150, 2-(2-ethyl-3,4-dihydro-2H-spiro[isoquinoline-1,4′-piperidine]-1′-yl)-1-(4-fluoropiperidin-1-yl)ethanone] | < 500 | –
14 | CCN1CCc2ccccc2C12CCN(CC(=O)N1CCCC(F)(F)C1)CC2 [Example 151, 1-(3,3-difluoropiperidin-1-yl)-2-(2-ethyl-3,4-dihydro-2H-spiro[isoquinoline-1,4′-piperidine]-1′-yl)ethanone] | < 500 | –
15 | CCC(CC)N(C)C(=O)CN1CCC2(CC1)c1ccccc1CCN2CC [Example 152, 2-(2-ethyl-3,4-dihydro-2H-spiro[isoquinoline-1,4′-piperidine]-1′-yl)-N-methyl-N-(pentan-3-yl)acetamide] | – | ++
16 | CCN1CCc2ccccc2C12CCN(CC(=O)N(C)C)CC2 [Example 153, 2-(2-ethyl-3,4-dihydro-2H-spiro[isoquinoline-1,4′-piperidine]-1′-yl)-N,N-dimethylacetamide] | – | ++
17 | CCN(C(=O)CN1CCC2(CC1)c1ccccc1CCN2CC)C1CC1 [Example 154, N-cyclopropyl-N-ethyl-2-(2-ethyl-3,4-dihydro-2H-spiro[isoquinoline-1,4′-piperidine]-1′-yl)acetamide] | < 500 | –
18 | CCN(CC)C(=O)CN1CCC2(CC1)c1ccccc1CCN2CC [Example 155, N,N-diethyl-2-(2-ethyl-3,4-dihydro-2H-spiro[isoquinoline-1,4′-piperidine]-1′-yl)acetamide] | < 500 | –

same assay, conditions: combined class for Ki-μ ([3H]-DAMGO, CHO-K1 membranes) and Ki-σ1 ([3H](+)-pentazocine, HEK-293 membranes)

Row | SMILES | Ki [nM]
19 | CN1CC(C)(C)c2ccccc2C12CCN(CC(=O)N1CCCCC1)CC2 [Example 138, 1-(Piperidin-1-yl)-2-(2,4,4-trimethyl-3,4-dihydro-2H-spiro[isoquinoline-1,4′-piperidine]-1′-yl)ethanone] | ≥ 500
20 | CN1Cc2ccccc2C12CCN(CC(=O)N1CCC(F)(F)CC1)CC2 [Example 156, 1-(4,4-difluoropiperidin-1-yl)-2-(2-methylspiro[isoindoline-1,4′-piperidine]-1′-yl)ethanone] | ≥ 500
21 | CCN(C(=O)CN1CCC2(CC1)c1ccccc1CN2C)C(C)C [Example 157, N-ethyl-N-isopropyl-2-(2-methylspiro[isoindoline-1,4′-piperidine]-1′-yl)acetamide] | ≥ 500
22 | CN1CCc2ccccc2C12CCN(CCNCCO)CC2 [Example 160, 2-(2-(2-Methyl-3,4-dihydro-2H-spiro[isoquinoline-1,4′-piperidine]-1′-yl)ethylamino)ethanol] | ≥ 500
